row,Compound,melting point
1,C=CCNC(=O)c1ccc(-c2ccc3nnn(Cc4ccc5ncccc5c4)c3n2)cc1F,162 to 164 °C
2,CC(C)Oc1cc(CCC(=O)NS(=O)(=O)CCCc2ccccc2)n(Cc2ccc(Cl)cc2Cl)n1,132 to 134 °C
3,NS(=O)(=O)c1ccc(-c2cnn(-c3ccc(F)cc3)c(=O)c2-c2ccc(F)cc2)cc1F,222 to 224 °C
4,CC(C)(C)NC(=O)c1nn(-c2ccc(Cl)cc2F)c2c1C1CCC2C1 (stereo not drawn),148 to 152 °C
5,CC(C)C1C(=O)N(CC(=O)O)C(c2ccccc2)=CN1C(=O)c1cccnc1 (racemic),230 to 240 °C
6,CC(C)OC(=O)c1cc(F)c(Cl)cc1Cl,35 °C
7,COC(=O)c1c(Cc2ccc(C(=O)O)cc2)c(=O)c2ccc(Cl)cc2n1-c1ccccc1,258 to 261 °C
8,CCCCCCCCCCCCCCCCCCC(N)CN (stereo not drawn),98 to 101 °C
9,CN1CC(CCCN2CCN(c3ccccc3O)CC2)OC1=O (stereo not drawn),112 to 116 °C
10,CNC(=O)CNC(=O)c1cccc(-c2cccc3oc(Cc4cccc(C(F)(F)F)c4)cc23)c1,135 to 139 °C
11,CC(C)(O)C(O)c1cnc(C2OCCO2)s1 (stereo not drawn),130 to 131 °C
12,Clc1nc(-c2ccco2)c2ncn(Cc3ccc(Cl)c(Cl)c3)c2n1,191 to 193 °C
13,O=C(Nc1cccc([N+](=O)[O-])c1)C(F)(F)C(F)(F)F,111 to 113 °C
14,O=C1c2cc3c(cc2CCC1Br)OCC3 (stereo not drawn),106 °C
15,COC(=O)c1cc2ccnc(N)c2[nH]1,> 300 °C
16,O=C(CC(c1ccccc1)c1ccccc1)N1CCC(N2Cc3ccccc3C2=O)CC1,166 to 169 °C
17,CC(C)(C)c1cc(Cl)c2c(c1)C=NS(=O)(=O)O2,127 to 130 °C
18,COc1ccc(Cn2c(N)c(Br)c(=O)[nH]c2=O)cc1,247 °C
19,CCOC(=O)Cc1sc(Sc2cccc(C(=O)OCC)n2)nc1C,73 to 75 °C
20,CC(CCNCCOc1cccc2[nH]ccc12)c1c[nH]c2ccccc12 (stereo not drawn),70 to 73 °C
21,Cc1cc(C)c2cc(C3CCNC(C)C3)sc2c1 (stereo not drawn),52 to 57 °C
22,CC(C)N1C(=O)N(c2ccc(C#N)c(C(F)(F)F)c2)C(=O)C1(CF)CF,153 to 154 °C
23,COCOc1cc2c(cc1-c1cc(-c3ccc(C(=O)O)cc3)ccc1-c1ccccc1)C(C)(C)CCC2(C)C,90 to 94 °C
24,COc1cc(OC)c(-c2ccccc2)nn1,53 to 54 °C
25,CCc1c[nH]c(=O)c(N)c1Sc1cc(C)cc(C)c1,208 to 209 °C

row,Compound,melting point
1,COc1cc(C(C)=O)ccc1OC/C=C/CN1CCC(c2noc3cc(F)ccc23)CC1,57 to 59 °C
2,CSc1nc(F)cc(F)n1,31 to 32 °C
3,Cc1cccc(C2(C#N)C3CC4CC(C3)CC2C4)c1 (stereo not drawn),85 to 86 °C
4,Cc1cccc(NC(=O)N2CCN(CCc3ccc(-c4cccc(N)n4)cc3)CC2)c1,88 to 94 °C
5,Cc1cc(NC2CCCCC2)c2[nH]ncc2n1,287 to 289 °C
6,CCOC(=O)/C=C/c1ccc(OCCOC)cc1OS(=O)(=O)C(F)(F)F,37.1 to 37.3 °C
7,CC(C)(C)OC(=O)N(Cc1ccccc1)c1ccc(O)cc1,228 to 230 °C
8,COC(=O)c1cc(OCc2ccccc2)c(OCc2ccccc2)c(OCc2ccccc2)c1,102 to 103 °C
9,CN(C)c1ccc(-c2cc(C(F)(F)F)c3c(-c4ccccc4)nn(COCC[Si](C)(C)C)c3n2)cc1,98 °C
10,Cc1nn(-c2cc(OC(C)C(=O)NS(C)(=O)=O)c(Cl)cc2Cl)c(=O)n1C(F)F (stereo not drawn),185 to 188 °C
11,CCOC(=O)c1ccc(-c2c(Cl)c(CN3C(=O)CCC3=O)nc3sc4c(c23)CCN(C(=O)OCc2ccccc2)C4)cc1,198 to 199 °C
12,Cc1nccn1-c1ccc(-c2cnc([C@H](Cc3ccccn3)N(C=O)c3cc4cc(Cl)ccc4o3)n2C)cc1,159 to 161 °C
13,CCCCCCCCCCOc1ccc(C(=O)O)cc1C(C)(C)C,130 to 132 °C
14,O=C(c1cccc(Br)c1)C(Br)C(Br)c1cccc(Br)c1 (stereo not drawn),159 to 160 °C
15,CCOC(=O)Cc1ccc(NC(=O)C(COc2ccccc2)NS(=O)(=O)c2ccc(Br)cc2)cc1 (racemic),150 to 153 °C
16,CN(C)c1ccc(C(=O)c2cc(C(F)(F)F)cc(C(F)(F)F)c2)cc1,129 to 131 °C
17,O=C(CC1CCN(Cc2ccccc2)CC1)Nc1cncnc1NCc1ccc(F)cc1,157 °C
18,ClCCN1C2CCC1CC(c1ccc3ccccc3c1)C2 (stereo not drawn),84 to 88 °C
19,O=[N+]([O-])c1cc2c(cc1Oc1ccccc1)CCC2,41 °C
20,CCCCOCCOc1ccc(-c2ccc3c(c2)C=C(C(=O)Nc2ccc(S(=O)Cc4ncon4)cc2)CCN3CC(C)C)cc1 (stereo not drawn),142 to 144 °C
21,NC(=O)Nc1cccc(CS(=O)(=O)O)c1,180 to 187 °C
22,O=C(Nc1cccc2c(=O)cc(C(=O)O)oc12)c1ccc2c(c1)CC(CCCc1ccccc1)O2 (stereo not drawn),184 to 185 °C
23,CCC(N)CCCCCCCCC(C)(C)C(=O)O (stereo not drawn),164 to 165 °C
24,CCC(NC(=O)c1sc(NC(=O)c2ccccc2)nc1C)c1ccccc1 (stereo not drawn),87 to 89 °C
25,CCOc1ccc2nc(COc3ccc(CC4SC(=O)N(C(c5ccccc5)(c5ccccc5)c5ccccc5)C4=O)cc3)n(C)c2n1 (stereo not drawn),88 to 100 °C

row,Compound,melting point
1,CCn1c2c(c(=O)c3cc(C(C)C)ccc31)Cc1cc(C)sc1-2,168 to 169 °C
2,COc1ccc(N(C(=O)CN2C(=O)C(Cc3cc(C)nn3Cc3ccccc3)C(=O)N(c3ccccc3)c3ccccc32)C(C)C)cc1 (stereo not drawn),117 to 120 °C
3,CCCc1nc(SC(F)F)c(C(=O)O)n1Cc1ccc(-c2ccccc2S(=O)(=O)NC(=O)NCCCc2ccccc2)cc1,108 °C
4,O=C1NCC(Cc2cccc(F)c2)O1 (stereo not drawn),77 to 78 °C
5,CC(C)n1nc(-c2cc(C#N)c(=O)[nH]c2-c2ccccc2)ccc1=O,> 250 °C
6,CCCCCCCCc1ccc(NC2=NCCS2)cc1,82 to 84 °C
7,Cn1cc(C2=NOCCO2)c(Cl)n1,112 °C
8,CN(Cc1cccc2c1CN(C1CCC(=O)NC1=O)C2=O)C(=O)Nc1cc(F)cc(F)c1 (stereo not drawn),228 to 230 °C
9,Nc1ccc(S(=O)C2=CCCCC2)cc1[N+](=O)[O-] (stereo not drawn),139 to 140 °C
10,COC(=O)c1ccccc1-c1cc(-c2ccc(Cl)cc2)on1,85 to 86 °C
11,CCCCCCCCCCCC#Cc1ccoc1C=O,56 to 57 °C
12,Nc1c(Cl)cc(-c2ccccc2)cc1Cl,112 to 113 °C
13,NC(=O)c1ccc(F)c2c1C[C@@H](N(CCCc1c[nH]c3c(F)cc(F)cc13)CC1CC1)CO2,147 to 151 °C
14,Cc1cc(C)cc(-c2cnn3c(-c4cccc(NC(=O)CC(C)C)c4)ccnc23)c1,178 to 180 °C
15,FC(F)(F)c1cc(Cl)c2nc(CCl)cn2c1,75 to 77 °C
16,Nc1ncnc2c1ncn2[C@@H]1O[C@H](CSCCO)[C@@H](O)[C@H]1O,198 to 201 °C
17,O=C(CC1CCCOC1=O)c1ccccc1 (stereo not drawn),93 to 94 °C
18,O=C(O)c1ccc(NCc2ccc(OCc3ccccc3)cc2)cc1,206 to 208 °C
19,CC(=NO)c1ccc(N)c(C(=NO)c2ccccc2F)c1,165 °C
20,OC(Cn1cncn1)(c1ccc(Cl)cc1)C(F)(F)F (stereo not drawn),117 to 118 °C
21,CC(C)C(=O)N(O)Cc1ccc2c(c1)Cc1ccccc1-2,163 to 166 °C
22,COc1nc2ccccc2n(-c2ccc(Cl)cc2)c1=O,245 to 247 °C
23,COC(=O)c1ccccc1Oc1nc(Oc2ccccc2C(=O)OC)nc(Oc2ccccc2C(=O)OC)n1,58 to 63 °C
24,COc1ccc(C(=O)Nc2cccnc2)c2c1oc1ccc(NC(C)=O)cc12,> 250 °C
25,CC(=O)Oc1ccccc1C(=O)Oc1ccc(CO[N+](=O)[O-])cc1,86 to 88 °C

row,Compound,melting point
1,O=C(O)C=Cc1ccc(C=CC(=O)O)c2ccccc12,350 to 355 °C
2,CC1(C)Cc2cc(O)c(Cl)c(Cl)c2C1=O,273 °C
3,CCCCCC(C)NC1=NS(=O)(=O)c2sc(Cl)cc2N1 (stereo not drawn),158 to 162 °C
4,O=C(NC(=O)c1ccccc1Cl)Nc1cnc(C(F)(F)F)cn1,219 to 220 °C
5,C[C@@H]1CCNC[C@@H]1N(C)c1nccc2[nH]ccc12,127 °C
6,O=[N+]([O-])c1cnc2cccnc2c1NCCOc1ccccc1,107 to 108 °C
7,Cc1cc(-c2cscn2)ccc1-c1cc(C(F)(F)F)nn1-c1ccc(S(C)(=O)=O)c(F)c1,132 °C
8,CCN(CC)CCOc1ccc(Nc2ncc3c(n2)N(C)C(=O)N(c2cc(Cl)ccc2Cl)C3)cc1,138 °C
9,CC(C)(C)N1CC(COc2cccc3c(S)nccc23)OC1=O (stereo not drawn),264 to 269 °C
10,Clc1c(CBr)c(CBr)cc2ccccc12,108 °C
11,CCOC1=CC(=O)N([C@@H]2c3cc(C#N)ccc3OC(C)(C)[C@H]2O)C1,210 °C
12,Cc1oc(-c2ccccc2)nc1COc1ccc(COc2ccc3ccccc3c2CC(=O)O)cc1,187 to 188 °C
13,CC(C)(C)OC(=O)NCC(=O)SCC(Cc1ccccc1)C(=O)Nc1cccc(C(=O)O)c1 (stereo not drawn),76 to 80 °C
14,CCOC(=O)Nc1ncc(-c2nc3ccccc3c(=O)n2-c2ccc(OC)cc2)s1,222 to 224 °C
15,CCCn1cc(C(=O)NCc2ccc(Cl)cc2)c(=O)c2cc(CN(C)C[C@@H](O)c3ccccc3)sc21,45 to 48 °C
16,COc1ccc2c(OC)c(C(C)C)cc(OC)c2c1,80 to 81.5 °C
17,CCC(C)(C)c1ccc(OCCCCSC2C(=O)N(c3c(Cl)cc(Cl)cc3Cl)N=C2Nc2ccc(Cl)cc2Cl)c(C(C)(C)CC)c1 (stereo not drawn),142 to 144 °C
18,O=C(O)CN1CN(c2ccccc2)C2(CCCCC2)C1,162 to 164 °C
19,COC(=O)C(=O)Nc1cc(OCCCOc2ccc(C(C)=O)c(O)c2CCC(F)(F)F)c(Br)cc1C,139 to 140 °C
20,Oc1ccc(-c2nnc(CSCCCOc3ccccc3)o2)cc1,122 to 127 °C
21,Cc1cc(NCCO)c2[nH]ncc2n1,213 to 216 °C
22,O=CNNc1ccc(NC(=S)Nc2ccc(NNC=O)cc2)cc1,212 to 214 °C
23,COc1c(C=O)c2cc(Cl)c(Cl)cc2n1C1OC(CO)C(O)C1O (stereo not drawn),198 to 199 °C
